Results as given in ChEMBL document CHEMBL1153468, “Discovery of a novel protein kinase B inhibitor by structure-based virtual screening” (Bioorg Med Chem Lett, 2009).
The source made the active and inactive calls. The rule behind the calls is not given here.

Columns and labels:
[1] = target: T1, RAC-beta serine/threonine-protein kinase (Homo sapiens, UniProt P31751); assay: Inhibition of AKT2 at 25 uM by FRET based assay
[2] = target: T1, RAC-beta serine/threonine-protein kinase; assay: Inhibition of AKT2 at 50 uM by FRET based assay
[3] = target: RAC-gamma serine/threonine-protein kinase (Homo sapiens, UniProt Q9Y243); assay: Inhibition of AKT3 by FRET based assay
Sequence of RAC-gamma serine/threonine-protein kinase (Q9Y243 whole entry): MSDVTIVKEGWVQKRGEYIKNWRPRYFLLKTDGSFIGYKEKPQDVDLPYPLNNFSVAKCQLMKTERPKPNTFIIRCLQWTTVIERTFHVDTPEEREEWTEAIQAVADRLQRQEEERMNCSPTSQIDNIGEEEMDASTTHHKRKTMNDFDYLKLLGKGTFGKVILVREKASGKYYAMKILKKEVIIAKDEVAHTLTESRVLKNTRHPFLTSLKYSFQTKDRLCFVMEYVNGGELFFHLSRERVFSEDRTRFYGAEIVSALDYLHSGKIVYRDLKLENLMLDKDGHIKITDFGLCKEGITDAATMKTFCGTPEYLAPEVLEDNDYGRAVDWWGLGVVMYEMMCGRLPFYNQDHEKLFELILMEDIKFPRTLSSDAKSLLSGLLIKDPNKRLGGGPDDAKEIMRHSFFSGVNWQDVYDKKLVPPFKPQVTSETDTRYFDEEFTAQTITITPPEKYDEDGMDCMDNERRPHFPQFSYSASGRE

[4] = target: RAC-alpha serine/threonine-protein kinase (Homo sapiens, UniProt P31749); assay: Inhibition of AKT1 by FRET based assay
Sequence of RAC-alpha serine/threonine-protein kinase (P31749 whole entry): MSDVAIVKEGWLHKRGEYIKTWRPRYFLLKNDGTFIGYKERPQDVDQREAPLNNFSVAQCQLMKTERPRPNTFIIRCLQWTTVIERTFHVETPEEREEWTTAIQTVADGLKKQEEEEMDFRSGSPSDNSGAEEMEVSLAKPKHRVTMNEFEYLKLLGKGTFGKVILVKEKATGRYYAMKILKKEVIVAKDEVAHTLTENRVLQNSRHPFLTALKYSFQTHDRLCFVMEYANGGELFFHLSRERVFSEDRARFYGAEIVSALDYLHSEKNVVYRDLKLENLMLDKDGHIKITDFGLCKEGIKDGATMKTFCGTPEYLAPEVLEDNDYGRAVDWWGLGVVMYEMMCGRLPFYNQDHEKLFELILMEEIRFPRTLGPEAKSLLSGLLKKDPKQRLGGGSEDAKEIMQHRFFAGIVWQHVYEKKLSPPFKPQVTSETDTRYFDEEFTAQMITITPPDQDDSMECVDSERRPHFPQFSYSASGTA

MDA-MB-453 = assay: Cytotoxicity against human MDA-MB-453 cells with PIK3CA mutation and HER2 amplification after 12 hrs by MTT assay; assay type: functional, cell-based; details: MDA-MB-453, 12 h
[5] = target: T1, RAC-beta serine/threonine-protein kinase; assay: Inhibition of AKT2 by FRET based assay
MDA-MB-468 = assay: Cytotoxicity against human MDA-MB-468 cells with PTEN mutation and EGFR amplification after 12 hrs by MTT assay; assay type: functional, cell-based; details: MDA-MB-468, 12 h

T1 sequence (P31751 whole entry): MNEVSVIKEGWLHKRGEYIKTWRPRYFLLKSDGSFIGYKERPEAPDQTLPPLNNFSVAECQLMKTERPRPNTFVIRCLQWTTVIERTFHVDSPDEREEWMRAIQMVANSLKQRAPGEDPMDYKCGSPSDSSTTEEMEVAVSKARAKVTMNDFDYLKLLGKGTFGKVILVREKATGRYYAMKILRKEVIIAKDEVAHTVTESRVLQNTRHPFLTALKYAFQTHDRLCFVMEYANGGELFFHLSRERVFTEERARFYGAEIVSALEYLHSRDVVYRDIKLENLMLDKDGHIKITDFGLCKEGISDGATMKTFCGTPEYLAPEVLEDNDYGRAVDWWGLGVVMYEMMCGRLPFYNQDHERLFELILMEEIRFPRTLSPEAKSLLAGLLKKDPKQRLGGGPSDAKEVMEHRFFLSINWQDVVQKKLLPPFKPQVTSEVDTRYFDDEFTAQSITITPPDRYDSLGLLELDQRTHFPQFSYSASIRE

O=S(=O)(NCCNC/C=C/c1ccc(Br)cc1)c1cccc2cnccc12
Activity [1]: inactive | Activity [2]: inactive

O=C1COc2ccc(-c3cc(-c4ccccc4)cc(-c4ccc5oc(=O)[nH]c5c4)n3)cc2N1
IC50 [3]: 4 µM | IC50 [4]: 2.6 µM | EC50 (MDA-MB-453): 10 µM | IC50 [5]: 1.5 µM | EC50 (MDA-MB-468): 3.8 µM

Clc1ccc(C2(c3ccc(-c4cn[nH]c4)cc3)CCNCC2)cc1
Activity [1]: inactive | Activity [2]: inactive
